Key:
winter barley = test: Test E winter barley; type: in vivo, Hordeum vulgare; conditions: Preemergence
green foxtail = test: Test E green foxtail; type: in vivo, Setaria viridis; conditions: Preemergence
crabgrass = test: Test B pre/postemergence crabgrass; type: in vivo, Digitaria sanguinalis
In short: (§1)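 Herbicidal effect was estimated by eye on a ten-point control scale after plants spent twelve to sixteen days in a greenhouse following soil or foliar treatment. Foliar sprays targeted plants at one to four leaves; all doses were formulated in a non-phytotoxic solvent with surfactant.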

wheat = test: Test B pre/postemergence wheat; type: in vivo, Triticum aestivum
In short: as §1

winter wheat [1] = test: Test E winter wheat; type: in vivo, Triticum aestivum; conditions: Preemergence
soybean = test: Test B pre/postemergence soybean; type: in vivo, Glycine max
In short: as §1

wild oat [2] = test: Test E wild oat; type: in vivo, Avena fatua; conditions: Preemergence
Italian ryegrass = test: Test E Italian ryegrass; type: in vivo, Lolium multiflorum; conditions: Preemergence
wild oat [3] = test: Test B pre/postemergence wild oat; type: in vivo, Avena fatua
In short: as §1

winter wheat [4] = test: Test E winter wheat; type: in vivo, Triticum aestivum; conditions: Postemergence, 0 to 100 scale
Procedure: […] All plant species were grown using normal greenhouse practices. Crop and weed species include annual bluegrass (Poa annua), blackgrass (Alopecurus myosuroides), black nightshade (Solanum nigra), chickweed (Stellaria media), common poppy (Papaver rhoeas), deadnettle (Lamium amplexicaule), downy brome (Bromus tectorum), field violet (Viola arvensis), galium (Galium aparine), green foxtail (Setaria viridis), Italian ryegrass (Lolium multiflorum), jointed goatgrass (Aegilops cylindrica), kochia (Kochia scoparia), lambsquarters (Chenopodium album), littleseed canarygrass (Phalaris minor), rape (Brassica napus), redroot pigweed (Amaranthus retroflexus), Russian thistle (Salsola kali), scentless chamomile (Matricaria inodora), spring barley (Hordeum vulgare), sugar beet (Beta vulgaris), sunflower (Helianthus annuus), ivyleaf speedwell (Veronica hederaefolia), spring wheat (Triticum aestivum), winter wheat (Triticum aestivum), wild buckwheat (Polygonum convolvulus), wild mustard (Sinapis arvensis), wild oat (Avena fatua), windgrass (Apera spica-venti) and winter barley (Hordeum vulgare).
Treated plants and untreated controls were maintained in a greenhouse for approximately 21 to 28 days, after which all treated plants were compared to untreated controls and visually evaluated. […] A dash response (-) means no test result.

blackgrass = test: Test E blackgrass; type: in vivo, Alopecurus myosuroides; conditions: Preemergence
smallflower flatsedge = test: Test B flood test smallflower flatsedge; type: in vivo, Cyperus difformis
In short: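 Plants were grown to the 2-leaf stage before treatment with test chemical, then held in a greenhouse for twelve to sixteen days. Injury was visually rated against untreated controls on a 0–10 scale, where 0 is no effect and 10 is complete control.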

[5] = Rate 31 g/ha, 0 to 100 scale, 0 no effect, 100 complete control
[6] = Rate 62 g/ha, 0 to 100 scale, 0 no effect, 100 complete control
[7] = Postemergence, Rate 62 g/ha, scale 0 to 10, 0 is no effect, 10 is complete control
[8] = Postemergence, Rate 125 g/ha, scale of 0 to 10 where 0 is no effect and 10 is complete control
[9] = Preemergence, Rate 62 g/ha, scale 0 to 10 (0 no effect, 10 complete control)
[10] = Preemergence, Rate 125 g/ha, scale 0 to 10 (0 no effect, 10 complete control)
[11] = Preemergence, Rate 250 g/ha, scale of 0 to 10 where 0 is no effect and 10 is complete control
[12] = Preemergence, Rate 500 g/ha, scale 0 (no effect) to 10 (complete control)
[13] = Rate 500 g/ha, Postemergence, scale 0 to 10, 0 no effect, 10 complete control
[14] = Preemergence, Rate 125 g/ha, 0 is no effect, 10 is complete control
[15] = Rate 250 g/ha, Postemergence, scale 0 to 10, 0 is no effect, 10 is complete control
[16] = Rate 500 g/ha, 0 to 100 scale where 0 is no effect and 100 is complete control
[17] = Preemergence, Rate 62 g/ha, scale of 0 to 10 where 0 is no effect and 10 is complete control
[18] = Preemergence, Rate 250 g/ha, scale 0 to 10, 0 is no effect, 10 is complete control
[19] = Preemergence, Rate 500 g/ha, scale of 0 to 10 where 0 is no effect and 10 is complete control
[20] = Rate 62 g/ha, Postemergence, scale of 0 to 10 where 0 is no effect and 10 is complete control
[21] = Rate 125 g/ha, Postemergence, scale 0 to 10
[22] = Rate 500 g/ha, Postemergence, scale 0 to 10

CCCn1c(=O)on(C(=O)N(c2ccc(F)cc2)C(C)C)c1=O [Compound 91]
Plant response rating, Barley (winter) (winter barley; [5]): 20
Plant response rating, Barley (winter) (winter barley; [6]): 40
Plant response rating, Green foxtail (green foxtail; [5]): 60
Plant response rating, Green foxtail (green foxtail; [6]): 80
Crabgrass plant response rating (crabgrass; [7]): 5
Crabgrass plant response rating (crabgrass; [8]): 9
Crabgrass plant response rating (crabgrass; Postemergence, Rate 250 g/ha, scale 0 to 10, 0 no effect, 10 complete control): 9
Crabgrass plant response rating (crabgrass; [9]): 10
Plant response rating, Crabgrass (crabgrass; [10]): 10
Plant response rating, Crabgrass (crabgrass; [11]): 10
Crabgrass plant response rating (crabgrass; [12]): 10
Crabgrass plant response rating (crabgrass; [13]): 9
Wheat plant response rating (wheat; [7]): 1
Wheat plant response rating (wheat; [8]): 1
Wheat plant response rating (wheat; [9]): 3
Wheat plant response rating (0 to 10 scale) (wheat; [14]): 4
Plant response rating, Wheat (wheat; [11]): 4
Wheat plant response rating (wheat; [12]): 6
Plant response rating, Wheat (wheat; [15]): 4
Wheat plant response rating (wheat; [13]): 6
Plant response rating, Wheat (winter) (winter wheat [1]; [5]): 10
Plant response rating, Wheat (winter) (winter wheat [1]; [6]): 40
Soybean plant response rating (soybean; [7]): 3
Soybean plant response rating (soybean; [8]): 3
Soybean plant response rating (soybean; [9]): 0
Plant response rating, Soybean (soybean; [10]): 0
Plant response rating, Soybean (soybean; [11]): 4
Soybean plant response rating (soybean; [12]): 7
Plant response rating, Soybean (soybean; [15]): 4
Soybean plant response rating (soybean; [13]): 5
Plant response rating, Wild oat (wild oat [2]; [5]): 40
Plant response rating, Wild oat (wild oat [2]; [6]): 60
Plant response rating, I. Ryegrass (Italian ryegrass; [5]): 40
Plant response rating, I. Ryegrass (Italian ryegrass; [6]): 40
Wild oats plant response rating (wild oat [3]; [7]): 1
Wild oats plant response rating (wild oat [3]; [8]): 2
Wild oats plant response rating (wild oat [3]; [9]): 8
Wild oats plant response rating (0 to 10 scale) (wild oat [3]; [14]): 9
Plant response rating, Wild oats (wild oat [3]; [11]): 10
Wild oats plant response rating (wild oat [3]; [12]): 10
Plant response rating, Wild oats (wild oat [3]; [15]): 3
Wild oats plant response rating (wild oat [3]; [13]): 5
Plant response rating, Wheat (winter) (winter wheat [4]; Rate 31 g/ha, 0 no effect, 100 complete control): 0
Plant response rating, Wheat (winter) (winter wheat [4]; Rate 62 g/ha): 10
Plant response rating, Blackgrass (blackgrass; [5]): 20
Plant response rating, Blackgrass (blackgrass; [6]): 60

CCc1cccc(C)c1-n1c(=O)on(C(=O)N(c2ccc(F)cc2)C(C)C)c1=O [Compound 201]
Barley (winter) plant response rating (0 to 100 scale) (winter barley; Rate 250 g/ha): 0
Plant response rating, Barley (winter) (winter barley; [16]): 20
Green foxtail plant response rating (0 to 100 scale) (green foxtail; Rate 250 g/ha): 50
Plant response rating, Green foxtail (green foxtail; [16]): 65
Crabgrass plant response rating (crabgrass; [17]): 0
Crabgrass plant response rating (0 to 10 scale) (crabgrass; [14]): 5
Crabgrass plant response rating (crabgrass; [18]): 9
Crabgrass plant response rating (crabgrass; [12]): 4
Plant response rating, Crabgrass (crabgrass; [19]): 9
Crabgrass plant response rating (crabgrass; [20]): 0
Crabgrass plant response rating (crabgrass; [21]): 0
Plant response rating (0 to 10; 0 is no effect, 10 is complete control), Crabgrass (crabgrass; Rate 250 g/ha, Postemergence): 0
Crabgrass plant response rating (crabgrass; [22]): 0
Wheat plant response rating (wheat; [17]): 0
Wheat plant response rating (wheat; [18]): 0
Wheat plant response rating (wheat; [12]): 0
Plant response rating, Wheat (wheat; [19]): 2
Wheat plant response rating (wheat; [20]): 0
Wheat plant response rating (wheat; [21]): 0
Plant response rating (0 to 10; 0 is no effect, 10 is complete control), Wheat (wheat; Rate 250 g/ha, Postemergence): 0
Wheat (winter) plant response rating (0 to 100 scale) (winter wheat [1]; Rate 250 g/ha): 40
Plant response rating, Wheat (winter) (winter wheat [1]; [16]): 40
Soybean plant response rating (soybean; [17]): 0
Soybean plant response rating (0 to 10 scale) (soybean; [14]): 0
Soybean plant response rating (soybean; [18]): 0
Soybean plant response rating (soybean; [12]): 0
Plant response rating, Soybean (soybean; [19]): 0
Soybean plant response rating (soybean; [20]): 1
Soybean plant response rating (soybean; [21]): 1
Plant response rating (0 to 10; 0 is no effect, 10 is complete control), Soybean (soybean; Rate 250 g/ha, Postemergence): 2
Soybean plant response rating (soybean; [22]): 3
Wild oat plant response rating (0 to 100 scale) (wild oat [2]; Rate 250 g/ha): 50
Plant response rating, Wild oat (wild oat [2]; [16]): 40
I. Ryegrass plant response rating (0 to 100 scale) (Italian ryegrass; Rate 250 g/ha): 50
Plant response rating, I. Ryegrass (Italian ryegrass; [16]): 60
Wild oats plant response rating (wild oat [3]; [17]): 0
Wild oats plant response rating (wild oat [3]; [18]): 3
Wild oats plant response rating (wild oat [3]; [12]): 0
Plant response rating, Wild oats (wild oat [3]; [19]): 5
Wild oats plant response rating (wild oat [3]; [20]): 0
Wild oats plant response rating (wild oat [3]; [21]): 0
Plant response rating (0 to 10; 0 is no effect, 10 is complete control), Wild oats (wild oat [3]; Rate 250 g/ha, Postemergence): 0
Blackgrass plant response rating (0 to 100 scale) (blackgrass; Rate 250 g/ha): 30
Plant response rating, Blackgrass (blackgrass; [16]): 50
S. Flatsedge plant response rating (smallflower flatsedge; Rate 62 g/ha, headed Pre-emergence (flood test species), scale 0 to 10 (0 no effect, 10 complete control)): 0
S. Flatsedge plant response rating (smallflower flatsedge; Rate 125 g/ha, Pre-emergence, flood test species, scale 0 to 10 where 0 is no effect and 10 is complete control): 0
S. Flatsedge plant response rating (smallflower flatsedge; Rate 250 g/ha, Pre-emergence, flood-test species, scale 0 to 10, 0 is no effect, 10 is complete control): 0
S. Flatsedge plant response rating (smallflower flatsedge; Rate 500 g/ha, Pre-emergence, flood test species, scale 0 to 10 (0 no effect, 10 complete control)): 7

From patent US6737383B1, “Herbicidal oxadiazolidines” (priority 1999, dated 2004)
